Laboratory results taken from patent publication US11173177B2, “Compounds for treatment of lipoprotein metabolism disorders” (Aarhus Universitet, priority 2016, dated 2021).
Entries after “also recorded” stand apart in the source; their conditions may differ. One block for each molecule: values may come before it.

Key:
PCSK9 [1] = test: BIACORE analysis of PCSK9 binding to heparin-albumin or albumin sensor chips; set-up: species or system human
Protocol: BIACORE analysis using sensor chips coupled with either albumin (Sigma A4503) or heparin-albumin (Sigma H0403) were used to evaluate the interaction between PCSK9 and heparin. […] An interference assay using BIACORE analysis was implemented to assess the binding between compound (X) and PCSK9. Solutions of 100 nM PCSK9 was incubated with increasing concentrations of compound (X) (0 nM, 10 nM, 100 nM, 1 μM and 10 μM), the solutions were then infused over the sensor chip coupled with heparin-albumin.

PCSK9 [2] = test: Heparin-sepharose binding assay (free PCSK9 by ELISA); set-up: species or system human; settings: 500-250 μg/ml, PCSK9 1 μg/ml, over night 4° C.
Protocol: Compound (X) inhibition of PCSK9 binding to Heparin/Heparan sulfate was tested in a Heparin-sepharose binding assay. Heparin-sepharose beads (2 μl) were incubated with PCSK9 (1 μg/ml) with increasing concentrations of compound (X) (0-500 μg/ml) in a total volume of 150 μl 10 mM NaH2PO4. After over night rotation at 4° C., beads were pelleted and the concentration of non-precipitated PCSK9 (free PCSK9) in supernatant was evaluated by ELISA. The concentration of free PCSK9 in each sample was normalised to the PCSK9 level in a sample without Heparin-sepharose beads (input control). As positive control was included a sample with soluble heparin (5 mg/ml) (FIG. 16 A).
Sucrose octasulfate (FIG. 21A) inhibition of PCSK9 binding to Heparin/Heparan sulfate was tested in a Heparin-sepharose binding assay. Heparin-sepharose beads (2 μl) were incubated with PCSK9 (1 μg/ml) and increasing concentrations of sucrose octasulfate (0-500 μg/ml) in a total volume of 150 μl 10 mM NaH2PO4. After over night rotation at 4° C., beads were pelleted and the concentration of non-precipitated PCSK9 (free PCSK9) in supernatant was evaluated by ELISA). Percent free PCSK9 was calculated with respect to the PCSK9 concentration in a sample without Heparin-sepharose beads (input control) (FIG. 21B).

PCSK9 [3] = test: Microscale Thermophoresis (MST) binding to PCSK9; set-up: species or system human; settings: 100 nM labelled PCSK9, PBS+0.05% Tween-20; for Kd: read-out: KD (affinity for PCSK9, MST)
Protocol: Equilibrium binding affinities between PCSK9 and ligands (suramin, dextran sulfate 5000, dextran 5000, pentosan sulfate and S-dC-36) were assessed using Microscale Thermophoresis (MST) (Jerabek-Willemsen et al., 2011). PCSK9 was labeled using the MO-L003 Monolith Blue-NHS labeling kit (NanoTemper Technologies) and a labeling efficiency of 1:1 molar ratio of protein to dye was achieved. PCSK9 was applied at a final concentration of 100 nM. The unlabeled binding partner was titrated in 1:1 dilutions (in PBS+0.05% Tween-20) where the highest concentrations were 15.4 mM for suramin, 2.3 mM for dextran sulfate 5000, 2.3 mM for dextran 5000, 16.3 mM for pentosan sulfate and 250 μM for S-dC-36. MST measurements were performed in standard-treated capillaries (NanoTemper Technologies) on a Monolith NT.115 instrument (NanoTemper Technologies) using 20% LED and 80% MST power. Laser on and off times were 5 s and 35 s, respectively. Negative controls were performed using 100 nM of labelled PCSK9 in MST buffer in all 16 capillaries under the same conditions as mentioned above. Binding curves were obtained from the temperature-jump phase at 80% MST power for suramin, dextran sulfate 5000 and S-dC-36; and from the thermophoresis+temperature-jump phase at 80% MST power for pentosan sulfate. For each binding partner, the sigmoidal dose-response curves were fitted with GraphPad Prism 6 to yield an average KD value.

liver LDLR = test: Liver LDLR levels in mice after intravenous PCSK9 injection (Western blot); type: in vivo
Protocol: To test the effect of enzymatic removal of heparan sulfate GAGs on PCSK9 activity in vivo 10-12 week-old male BALB6/cJRj mice were infused with heparinase I (30 U) administered through a tail vein catheter 5 min prior injection of PCSK9 (10 μg). In control mice the heparinase injection and/or the PCSK9 injection were replaced with an injection of 0.9% saline. During heparinase infusion, mice were lightly anaesthetized with isoflurane continuously administered through a mask.
Mice (BALB6/cJRj) were subjected to a single intravenous administration (tail vein) of 10 μg human recombinant PCSK9 alone or in combination with heparin (50 U). One hour post injection mice were sacrificed and liver tissues were collected.
Mice (BALB6/cJRj) were subjected to a single intravenous (tail vein) administration of 3.2 μg compound (X) 60 minutes prior injection with PCSK9 (10 μg). PCSK9 induced degradation of liver LDLR was assessed 60 min post PCSK9 injection by Western blotting and quantified by densitometry (FIG. 16 C). Control mice were injected with NaCl or control inhibitor Evolocumab (200 μg), commercially available PCSK9 inhibitory monoclonal antibody (Amgen). LDLR levels were calculated with respect to LDLR level in mice injected with NaCl alone.

HepG2 cells = test: Uptake of Bodipy-labeled LDL particles in HepG2 cells; type: cell-based, human; settings: suramin 200 μg/ml overnight, then 4 hours 10 ng/ml Bodipy-LDL
Protocol: FIG. 12: Bar graphs showing the relative fluorescence signal in HepG2 cells after overnight incubation with suramin (200 μg/ml) following 4 hours incubation with 10 ng/ml LDL particles labeled with fluorescence dye Bodipy. Inhibition of PCSK9 with suramin increases the uptake of LDL two-fold.

LDLR in HepG2 cells [4] = test: LDLR levels in HepG2 cells by Western blotting and densitometry; type: cell-based, human
LDLR in HepG2 cells [5] = test: as above; type: cell-based, human; settings: for cellular LDLR, plateau compared to control: dose-dependent increase
Protocol: In the heparin mimetic class of modified polysaccharides compounds dextran sulfate (FIG. 9 A-B) and pentosan (FIG. 9 D-E) were tested in a HepG2 based in vitro cell assay. After overnight incubation LDLR levels were evaluated by Western blotting showing a concentration dependent increase of LDLR upon treatment with dextran sulfate (0-200 μg/ml) with up to 3-fold up regulation of LDLR.
Control cells were incubated without additives (negative control) or 500 μg/ml heparin (positive control). LDLR levels were calculated with respect to the level found in lysate of HepG2 cells incubated without additives.
HepG2 cells were incubated with 0-200 μg/ml of heterogeneously sulfated hexamer or 18-mer oligosaccharides containing on average 1,3 sulfates per disaccharide. After over night incubation cells were harvested and the cellular level of LDLR was analyzed by Western blotting (FIG. 17 A) and quantified by densitometry (FIG. 17 B).

[6] = oral dose; cited from earlier work
cell surface PCSK9 = test: Surface PCSK9 immunostaining of non-permeabilized HepG2 cells stably expressing PCSK9; type: cell-based, human; settings: heparinase I 1 h at 37° C.
Protocol: We speculated that HSPG might be involved in the capture of PCSK9. Thus, we treated human hepatocyte-derived HepG2 cells stably expressing PCSK9 with heparinase I. The enzyme heparinase I cleaves heparan sulfate GAG chains at the 1,4 O-linkage between uronic acid and N-acetyl-D-glucosamine, thereby removing cell surface heparan sulfate chains.
HepG2 cells stably transfected with PCSK9 were seeded at 50.000 cells per coverslip and incubated overnight before addition of heparinase I (Sigma Aldrich/H2519) in PBS (0,0002 UN/ml) or PBS alone. Cells were incubated for 1 h. at 37° C., before fixation in 4% paraformaldehyd and immunostaining of non-permeabilized cells with primary and secondary antibodies. Nuclei were visualized with Hoechst dye (Sigma Aldrich). Images were acquired on a Zeiss LSM780.

Molecule: O=S(=O)(O)OC[C@H]1O[C@@](COS(=O)(=O)O)(O[C@H]2O[C@H](COS(=O)(=O)O)[C@@H](OS(=O)(=O)O)[C@H](OS(=O)(=O)O)[C@H]2OS(=O)(=O)O)[C@@H](OS(=O)(=O)O)[C@@H]1OS(=O)(=O)O [Sucrose octasulfate]
- inhibition of PCSK9 precipitation with Heparin-sepharose (PCSK9 [2]): inhibited PCSK9 precipitation with Heparin-sepharose as well as 5 mg/ml soluble heparin

Molecule: Cc1ccc(C(=O)Nc2ccc(S(=O)(=O)O)c3cc(S(=O)(=O)O)cc(S(=O)(=O)O)c23)cc1NC(=O)c1cccc(NC(=O)Nc2cccc(C(=O)Nc3cc(C(=O)Nc4ccc(S(=O)(=O)O)c5cc(S(=O)(=O)O)cc(S(=O)(=O)O)c45)ccc3C)c2)c1 [suramin]
- Kd (PCSK9 [3]): 190 µM
- level of liver LDLR compared to mice injected with PCSK9 alone (liver LDLR; co-injected with PCSK9 (10 μg), heparin 50 U or suramin 300 μg, 1 hour): significantly higher level of LDLR
- uptake of fluorescently labelled LDL particles (HepG2 cells): increased cellular uptake of fluorescently labelled LDL particles; also recorded: two-fold
- LDLR level compared with cells incubated with statins (LDLR in HepG2 cells [4]; 100 μM, 24 and 48 hours, vs mevastatin and simvastatin): higher level of LDLR
- increase in LDLR (LDLR in HepG2 cells [4]; suramin 0-200 μg/ml, 24 hour): up to fifteen-fold increase in LDLR

Molecule: phosphorothioate oligodeoxycytidine [S-dC-36]
- cellular LDLR levels / PCSK9 inhibitory effect (LDLR in HepG2 cells [4]; 0-5.0 μM, 24 hour): potent inhibitory effects; also recorded: concentration dependent increase in cellular receptor levels

B1: heparinase I: enzyme that cleaves heparan sulfate GAG chains (Sigma Aldrich/H2519) (protein, UniProt Q05819 22-384, looked up)
Heparin lyase I: QQKKSGNIPYRVNVQADSAKQKAIIDNKWVAVGINKPYALQYDDKLRFNGKPSYRFELKAEDNSLEGYAAGETKGRTELSYSYATTNDFKKFPPSVYQNAQKLKTVYHYGKGICEQGSSRSYTFSVYIPSSFPDNATTIFAQWHGAPSRTLVATPEGEIKTLSIEEFLALYDRMIFKKNIAHDKVEKKDKDGKITYVAGKPNGWKVEQGGYPTLAFGFSKGYFYIKANSDRQWLTDKADRNNANPENSEVMKPYSSEYKTSTIAYKMPFAQFPKDCWITFDVAIDWTKYGKEANTILKPGKLDVMMTYTKNKKPQKAHIVNQQEILIGRNDDDGYYFKFGIYRVGNSTVPVTYNLSGYSETAR
- intensity of surface PCSK9 staining (cell surface PCSK9): marked decrease in the intensity of surface PCSK9 staining
- PCSK9 induced degradation of liver LDLR (liver LDLR; heparinase I (30 U) infused 5 min prior PCSK9 (10 μg), 1 hour): completely protected; also recorded: completely inhibits

B2: Evolocumab: commercially available PCSK9 inhibitory monoclonal antibody (Amgen) (antibody, chains of the INN, looked up, V domains shown)
VH: EVQLVQSGAEVKKPGASVKVSCKASGYTLTSYGISWVRQAPGQGLEWMGWVSFYNGNTNYAQKLQGRGTMTTDPSTSTAYMELRSLRSDDTAVYYCARGYGMDVWGQGTTVTVSS
VL: ESALTQPASVSGSPGQSITISCTGTSSDVGGYNSVSWYQQHPGKAPKLMIYEVSNRPSGVSNRFSGSKSGNTASLTISGLQAEDEADYYCNSYTSTSMVFGGGTKLTVL
- decrease of liver LDLR level after PCSK9 injection (liver LDLR; inhibitor i.v. 60 min prior PCSK9 (10 μg), compound (X) 0.13 mg/kg, Evolocumab 8 mg/kg, PCSK9 without inhibitor: 50% decrease): no decrease was observed

More lines, main results first:

- Kd (PCSK9 [1]; Example 20 text, read-out: affinity constant of PCSK9 binding): 0.0007 µM
Molecule: heparin-albumin: heparin-albumin (Sigma H0403) coupled to sensor chip

- KD (affinity for PCSK9, MST) (PCSK9 [3]): no affinity for PCSK9
Molecule: dextran

- PCSK9 binding to control sensor chip (PCSK9 [1]; sensor chip coupled with albumin): no binding was observed
Molecule: albumin: albumin (Sigma A4503) control sensor chip

- Kd (PCSK9 [3]): 180 µM
Molecule: dextran sulfate
- up regulation of LDLR (LDLR in HepG2 cells [5]; 0-200 μg/ml, overnight): up to 3 fold
- cellular level of LDLR (LDLR in HepG2 cells [5]; 200 μg/ml, 24 hour): potently increase the cellular level of LDLR
- cellular LDLR, plateau compared to control (LDLR in HepG2 cells [5]): around 400%

- Kd (PCSK9 [3]): 381 µM
Molecule: pentosan sulfate
- absorption from the digestive tract, median time after ingestion [6]: 2 h
- increase in LDLR (LDLR in HepG2 cells [5]; 50-200 μg/ml, 24 hour / overnight): 4 fold
- cellular LDLR, plateau compared to control (LDLR in HepG2 cells [5]): around 400%
